The record followed here is patent publication US20230002393A1, “CDK KINASE INHIBITOR” (BEIJING BENICALL BIOTECH CO., LTD., priority 2019, published 2023).

In one experiment the target is T1, CDK6/CyclinD1 (Homo sapiens, UniProt Q00534).
T1 construct: purchased Carna 04-114
Briefly: In vitro cell-free CDK6/CyclinD1 kinase activity assay (TR-FRET). The conditions noted are these: ATP at Km. The experiment is classed as biochemical. On the procedure:
It should be noted that the assay can also be conducted by a similar method. The assay steps in this Test Example are as follows:
The CDK6/CyclinD1 kinase activity was determined using a time-resolved fluorescence resonance energy transfer (TR-FRET) method. Measurements were performed in a reaction volume of 20 μL using 384-well assay plates. […] The reaction was stopped by adding a mixture of a peptide antibody (trade name: Cisbio, product No. 64CUSKAY) and Sa-XL665 (trade name: Cisbio, product No. 610SAXLB) diluted in HTRF KinEASE detection buffer (trade name: Cisbio, product No. 62SDBRDF, containing EDTA). After the mixture was incubated for 1 hour at room temperature, the plate was read. The TR-FRET signal was measured on a multimode plate reader (EnVision™, a multi-function microplate detector, PerkinElmer) at an excitation wavelength (λEx) of 330 nm and detection wavelengths (λEm) of 615 and 665 nm. The activity was determined by the ratio of fluorescence at 665 nm to that at 615 nm. For each compound, the enzyme activities of different concentrations of the compound were measured to determine IC50. The negative control contained no inhibitor. Two no-enzyme controls were used to determine baseline fluorescence levels. IC50 was obtained by fitting using the GraphPad 6.02 software.
8-10 concentrations were prepared for each compound, and formulated in DMSO. The stock concentration was 200× the working concentration. For example, if the working concentration was 100 nM, the corresponding concentration of the formulated stock solution was 20 μM.
In the analysis of in vitro inhibitory activity on CDK kinase, the IC50 value of each of the Example compounds and Reference Example compounds was determined.

The test system of the next experiment is MCF-7 cells. In words: Cell viability assay, MCF-7 cells (CellTiter-Glo, 168 h). The format is cell-based. The conditions noted are these: Homo sapiens, MCF7. On the procedure:
An in vitro cell viability assay was conducted using some Example compounds following the steps below:
1. After recovery, MCF-7 cells (obtained from the Shanghai Cell Bank of the Chinese Academy of Sciences) were cultured at 37° C., 5% CO2, and 95% humidity.
2. 8 compound solutions at different concentrations were prepared for each Example compound. 50 μL of the compound solution at each concentration was added to a 96-well black plate.
3. The cell concentration was adjusted to about 30,000 cells/mL. 100 μL of the cell suspension was added to the 96-well plate, and mixed well to a final cell density of about 3,000 cells/well.
4. The 96-well plate was incubated at 37° C., 5% CO2, and 95% humidity for 168 h, i.e., 7 days.
5. The cell survival rate was measured by the method of CellTiter-Glo® Luminescent Cell Viability Assay (Promega, Cat #G7572). The fluorescence data were read on a microplate reader (EnVision™, a multi-function microplate detector, PerkinElmer).
6. The obtained fluorescence data were analyzed using the GraphPad Prism software. The cell survival rate was calculated for each Example compound at each concentration, and the IC50 interval of each Example compound was determined.
In general terms: In ATP-based viability assays light output follows the ATP content of the culture.

T1 sequence (Q00534 whole entry): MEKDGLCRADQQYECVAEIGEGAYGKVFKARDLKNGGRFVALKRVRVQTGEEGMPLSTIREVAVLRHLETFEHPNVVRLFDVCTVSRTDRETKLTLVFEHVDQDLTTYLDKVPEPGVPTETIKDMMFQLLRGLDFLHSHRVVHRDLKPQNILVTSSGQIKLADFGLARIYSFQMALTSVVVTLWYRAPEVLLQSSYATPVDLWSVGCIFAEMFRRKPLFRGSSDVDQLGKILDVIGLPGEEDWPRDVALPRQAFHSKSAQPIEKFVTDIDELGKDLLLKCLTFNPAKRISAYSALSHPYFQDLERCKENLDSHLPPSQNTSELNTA
T1 sequence (P24385 whole entry partner): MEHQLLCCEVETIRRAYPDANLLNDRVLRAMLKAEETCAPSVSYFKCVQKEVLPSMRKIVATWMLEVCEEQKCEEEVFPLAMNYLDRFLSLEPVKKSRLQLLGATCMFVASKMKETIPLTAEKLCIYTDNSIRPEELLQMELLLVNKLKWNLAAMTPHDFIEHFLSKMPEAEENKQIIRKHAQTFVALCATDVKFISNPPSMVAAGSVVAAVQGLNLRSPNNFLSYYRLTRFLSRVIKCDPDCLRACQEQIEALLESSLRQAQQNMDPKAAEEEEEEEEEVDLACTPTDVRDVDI

One may read the IC50 as the concentration that inhibits the measured activity by half. Low readings indicate higher potency, high ones lower potency. In the case of `CN(C)C(=O)c1cc2cnc(Nc3ccc(N4CCC5(CC4)OCCO5)cn3)nn2c1C1=CCCC1` [Example 37], the concentration for half-maximal inhibition (IC50) at CDK6/CyclinD1 is less than 100 nM; in the experiment on MCF-7 cells, 500 to 2500 nM.
As for `CN(C)C(=O)c1cc2cnc(Nc3ccc(N4CCC5(CC4)COC5)cn3)nn2c1C1=CCCC1` [Example 38], the half-inhibitory concentration (IC50) was less than 100 nM at CDK6/CyclinD1 and less than 500 nM in the experiment with MCF-7 cells.
As for `CN(C)C(=O)c1cc2cnc(Nc3ccc(N4CC5(CCNC5)C4)cn3)nn2c1C1=CCCC1` [Example 39], the results for the IC50 at CDK6/CyclinD1 and in the experiment on MCF-7 cells were less than 100 nM and less than 500 nM, respectively.
For `CN(C)C(=O)c1cc2cnc(Nc3ccc(N4CC5(CNC5)C4)cn3)nn2c1C1=CCCC1` [Example 40], in that order: less than 100 nM and less than 500 nM.
For `CN(C)C(=O)c1cc2cnc(Nc3ccc(N4CCC5(CC4)CNC5)cn3)nn2c1C1=CCCC1` [Example 41], in that order: less than 100 nM and less than 500 nM.
For `COc1ccc(-c2c(C(=O)N(C)C)cc3cnc(Nc4ccc(N5CCNCC5)cn4)nn23)cc1` [Example 42], the concentration for half-maximal inhibition (IC50) is less than 100 nM against CDK6/CyclinD1 and less than 500 nM with MCF-7 cells.
Turning to `CN(C)C(=O)c1cc2cnc(Nc3ccc(N4CCC5(CCNCC5)C4)cn3)nn2c1-c1ccc(Cl)cc1` [Example 43], the results for the 50% inhibitory concentration (IC50) against CDK6/CyclinD1 and in the experiment with MCF-7 cells were less than 100 nM and 500 to 2500 nM, respectively.
For `CN(C)C(=O)c1cc2cnc(Nc3ccc(N4CCC5(CC4)CNC5)cn3)nn2c1-c1ccc(Cl)cc1` [Example 44], in that order: less than 100 nM and less than 500 nM.
For `CN(C)C(=O)c1cc2cnc(Nc3ccc(N4CCNC5(CC5)C4)cn3)nn2c1-c1ccc(Cl)cc1` [Example 45], in that order: less than 100 nM and 500 to 2500 nM.
For `CN(C)C(=O)c1cc2cnc(Nc3ccc(N4CC5(CCNC5)C4)cn3)nn2c1-c1ccc(Cl)cc1` [Example 46], the IC50 against CDK6/CyclinD1 was less than 100 nM; in the experiment on MCF-7 cells, less than 500 nM.
For `COCCOc1ccc(-c2c(C(=O)N(C)C)cc3cnc(Nc4ccc(N5CCNC6(CC6)C5)cn4)nn23)cc1` [Example 47], in that order: less than 100 nM and 2500 to 10000 nM.
For `COCCOc1ccc(-c2c(C(=O)N(C)C)cc3cnc(Nc4ccc(N5CC6(CCNC6)C5)cn4)nn23)cc1` [Example 49], in that order: less than 100 nM and 500 to 2500 nM.
For `COCCOc1ccc(-c2c(C(=O)N(C)C)cc3cnc(Nc4ccc(N5CCC6(CCNCC6)C5)cn4)nn23)cc1` [Example 50], in that order: less than 100 nM and 2500 to 10000 nM.
For the compound `O=C1CCCN1c1cc2cnc(Nc3ccc(N4CCNCC4)cn3)nn2c1-c1ccc(Cl)cc1` [Example 51], the half-inhibitory concentration (IC50) against CDK6/CyclinD1 was 100 to 1000 nM; with MCF-7 cells, 500 to 2500 nM.
For `O=C1CCCN1c1cc2cnc(Nc3ccc(N4CCNCC4)cn3)nn2c1C1=CCCC1` [Example 52], in that order: 100 to 1000 nM and 2500 to 10000 nM.
For `COc1cc(F)ccc1-c1c(-c2cnn(C)c2)cc2cnc(Nc3ccc(N4CCNCC4)cn3)nn12` [Example 53], in that order: 100 to 1000 nM and 500 to 2500 nM.
For `Cn1cc(-c2cc3cnc(Nc4ccc(N5CCNCC5)cn4)nn3c2-c2ccncc2)cn1` [Example 54], the IC50 is less than 100 nM against CDK6/CyclinD1 and 500 to 2500 nM in the experiment on MCF-7 cells.
Take `Cn1cc(-c2cc3cnc(Nc4ccc(N5CCNCC5)cn4)nn3c2N2CCCC2)cn1` [Example 55]: the figures for the 50% inhibitory concentration (IC50) on CDK6/CyclinD1 and in the experiment with MCF-7 cells were less than 100 nM and less than 500 nM, respectively.
`COCCOc1ccc(-c2c(C(=O)N(C)C)cc3cnc(Nc4ccc(N5CCNCC5)cn4)nn23)cc1` [Example 57]: the results for the IC50 against CDK6/CyclinD1 and with MCF-7 cells were less than 100 nM and 500 to 2500 nM, respectively.
For `CN(C)C(=O)c1cc2cnc(Nc3ccc(N4CCNCC4)cn3)nn2c1-c1ccncc1` [Example 58], in that order: less than 100 nM and 2500 to 10000 nM.
For `COc1cc(F)ccc1-c1c(C(=O)N(C)C)cc2cnc(Nc3ccc(N4CCNCC4)cn3)nn12` [Example 59], in that order: less than 100 nM and 500 to 2500 nM.
For `CN(C)C(=O)c1cc2cnc(Nc3ccc(N4CCNCC4)cn3)nn2c1-c1ccc(O)cc1` [Example 60], in that order: less than 100 nM and 2500 to 10000 nM.
For `COc1cc(F)ccc1-c1c(C(=O)N(C)C)cc2cnc(Nc3ccc(N4CC5(CNC5)C4)cn3)nn12` [Example 65], the half-inhibitory concentration (IC50) is less than 100 nM against CDK6/CyclinD1 and 2500 to 10000 nM with MCF-7 cells.
For `Cc1noc(C)c1-c1c(-c2cnn(C)c2)cc2cnc(Nc3ccc(N4CCNCC4)cn3)nn12` [Example 68], in that order: 100 to 1000 nM and 2500 to 10000 nM.
Consider `CN(C)C(=O)c1cc2cnc(Nc3ccc(N4CC5(CCNC5)C4)cn3)nn2c1-c1ccncc1` [Example 69], for which the IC50 is less than 100 nM at CDK6/CyclinD1 and 2500 to 10000 nM in the experiment with MCF-7 cells.
For the compound `Cn1cc(-c2cc3cnc(Nc4ccc(N5CCNCC5)cn4)nn3c2C2CCCC2)cn1` [Example 71], the IC50 against CDK6/CyclinD1 was less than 100 nM; in the experiment with MCF-7 cells, 500 to 2500 nM.
On to `FC(F)n1cc(-c2cc3cnc(Nc4ccc(N5CCNCC5)cn4)nn3c2C2=CCCC2)cn1` [Example 72], for which the 50% inhibitory concentration (IC50) is 100 to 1000 nM against CDK6/CyclinD1 and 500 to 2500 nM with MCF-7 cells.
For `Cn1cc(-c2cc3cnc(Nc4ccc(N5CCNCC5)cn4)nn3c2C2=CCCC2)ccc1=O` [Example 73], in that order: less than 100 nM and 500 to 2500 nM.
For `C1=C(c2c(-c3cn[nH]c3)cc3cnc(Nc4ccc(N5CCNCC5)cn4)nn23)CCC1` [Example 74], in that order: less than 100 nM and less than 500 nM.
For `C1=C(c2c(-c3cccs3)cc3cnc(Nc4ccc(N5CCNCC5)cn4)nn23)CCC1` [Example 75], in that order: less than 100 nM and 500 to 2500 nM.
With `C1=C(c2c(-c3cnoc3)cc3cnc(Nc4ccc(N5CCNCC5)cn4)nn23)CCC1` [Example 76], the half-inhibitory concentration (IC50) at CDK6/CyclinD1 was less than 100 nM; in the experiment with MCF-7 cells, 2500 to 10000 nM.
As to `Cc1ncc(-c2cc3cnc(Nc4ccc(N5CCNCC5)cn4)nn3c2C2=CCCC2)cn1` [Example 78], the 50% inhibitory concentration (IC50) against CDK6/CyclinD1 is less than 100 nM; in the experiment on MCF-7 cells, 2500 to 10000 nM.
For `Cn1cc(-c2cc3cnc(Nc4ccc(N5CCNCC5)cn4)nn3c2)cn1` [Example 81], in that order: 100 to 1000 nM and 2500 to 10000 nM.
Consider `Cn1cc(-c2cc3cnc(Nc4ccc(N5CCNCC5)cn4)nn3c2Br)cn1` [Example 82], for which the values for the concentration for half-maximal inhibition (IC50) on CDK6/CyclinD1 and in the experiment with MCF-7 cells were 100 to 1000 nM and less than 500 nM, respectively.
As to `Cc1ccc(-c2cc3cnc(Nc4ccc(N5CCNCC5)cn4)nn3c2C2=CCCC2)s1` [Example 83], the IC50 was 100 to 1000 nM on CDK6/CyclinD1 and 500 to 2500 nM with MCF-7 cells.
For `C1=C(c2c(-c3cncnc3)cc3cnc(Nc4ccc(N5CCNCC5)cn4)nn23)CCC1` [Example 84], in that order: less than 100 nM and less than 500 nM.
For `Cc1n[nH]cc1-c1cc2cnc(Nc3ccc(N4CCNCC4)cn3)nn2c1C1=CCCC1` [Example 85], in that order: less than 100 nM and less than 500 nM.
Regarding `CCn1cc(-c2cc3cnc(Nc4ccc(N5CCNCC5)cn4)nn3c2C2=CCCC2)cn1` [Example 86], the figures for the IC50 on CDK6/CyclinD1 and with MCF-7 cells were less than 100 nM and less than 500 nM, respectively.
For `CC(C)n1cc(-c2cc3cnc(Nc4ccc(N5CCNCC5)cn4)nn3c2C2=CCCC2)cn1` [Example 87], the IC50 at CDK6/CyclinD1 is 100 to 1000 nM; in the experiment with MCF-7 cells, less than 500 nM.
As to `C1=C(c2c(-c3cccnc3)cc3cnc(Nc4ccc(N5CCNCC5)cn4)nn23)CCC1` [Example 88], the half-inhibitory concentration (IC50) is less than 100 nM at CDK6/CyclinD1 and less than 500 nM in the experiment with MCF-7 cells.
